# Laboratory results from patent publication US9643974B2, “Amino-substituted imidazopyridazines” (Bayer Intellectual Property GmbH, priority 2011, dated 2017).
# Counter-ions that a name gives are not always drawn.
# How the values were obtained:
# human full-lengt MKNK1 = biological target: T1, human full-lengt MKNK1 (Homo sapiens, UniProt Q9BUB5, T385D); experiment: MKNK1 kinase assay (MKNK1 TR-FRET assay); assay type: biochemical; conditions: ATP final conc. 10 μM, 15 min preincubation, 45 min reaction at 22° C.
# T1 construct: purchased Carna Biosciences 02-145; host or cells: insect cells (baculovirus expression system)
# Source text: MKNK1-inhibitory activity of compounds of the present invention was quantified employing the MKNK1 TR-FRET assay as described in the following paragraphs.
# (§1) A recombinant fusion protein of Glutathione-S-Transferase (GST, N-terminally) and human full-lengt MKNK1 (amino acids 1-424 and T344D of accession number BAA 19885.1), expressed in insect cells using baculovirus expression system and purified via glutathione sepharose affinity chromatography, was purchased from Carna Biosciences (product no 02-145) and used as enzyme. As substrate for the kinase reaction the biotinylated peptide biotin-Ahx-IKKRKLTRRKSLKG (C-terminus in amide form) was used which can be purchased e.g. form the company Biosyntan (Berlin-Buch, Germany).
# (§2) For the assay 50 nL of a 100 fold concentrated solution of the test compound in DMSO was pipetted into a black low volume 384 well microtiter plate (Greiner Bio-One, Frickenhausen, Germany), 2 μL of a solution of MKNK1 in aqueous assay buffer [50 mM HEPES pH 7.5, 5 mM magnesium chloride, 1.0 mM dithiothreitol, 0.005% (v/v) Nonidet-P40 (Sigma)] was added and the mixture was incubated for 15 min at 22° C. to allow pre-binding of the test compounds to the enzyme before the start of the kinase reaction. Then the kinase reaction was started by the addition of 3 μL of a solution of adenosine-tri-phosphate (ATP, 16.7 μM=>final conc. in the 5 μL assay volume is 10 μM) and substrate (0.1 μM=>final conc. in the 5 μL assay volume is 0.06 μM) in assay buffer and the resulting mixture was incubated for a reaction time of 45 min at 22° C. The concentration of MKNK1 was adjusted depending of the activity of the enzyme lot and was chosen appropriate to have the assay in the linear range, typical concentrations were in the range of 0.05 μg/ml. The reaction was stopped by the addition of 5 μL of a solution of TR-FRET detection reagents (5 nM streptavidine-XL665 [Cisbio Bioassays, Codolet, France] and 1 nM anti-ribosomal protein S6 (pSer236)-antibody from Invitrogen [#44921G] and 1 nM LANCE EU-W1024 labeled ProteinG [Perkin-Elmer, product no. AD0071]) in an aqueous EDTA-solution (100 mM EDTA, 0.1% (w/v) bovine serum albumin in 50 mM HEPES pH 7.5).
# The resulting mixture was incubated for 1 h at 22° C. to allow the formation of complex between the phosphorylated biotinylated peptide and the detection reagents. Subsequently the amount of phosphorylated substrate was evaluated by measurement of the resonance energy transfer from the Eu-chelate to the streptavidine-XL. Therefore, the fluorescence emissions at 620 nm and 665 nm after excitation at 350 nm were measured in a TR-FRET reader, e.g. a Rubystar (BMG Labtechnologies, Offenburg, Germany) or a Viewlux (Perkin-Elmer). The ratio of the emissions at 665 nm and at […] was taken as the measure for the amount of phosphorylated substrate. The data were normalised (enzyme reaction without inhibitor=0% inhibition, all other assay components but no enzyme=100% inhibition). Usually the test compounds were tested on the same microtiterplate in 11 different concentrations in the range of 20 μM to 0.1 nM (20 μM, 5.9 μM, 1.7 μM, 0.51 μM, 0.15 μM, 44 nM, 13 nM, 3.8 nM, 1.1 nM, 0.33 nM and 0.1 nM, the dilution series prepared separately before the assay on the level of the 100 fold concentrated solutions in DMSO by serial 1:3.4 dilutions) in duplicate values for each concentration and […] were calculated by a 4 parameter fit.
# human full-length MKNK1 = biological target: T2, human full-length MKNK1 (Homo sapiens, UniProt Q9BUB5, T385D); experiment: MKNK1 kinase high ATP assay (TR-FRET-based); assay type: biochemical; conditions: ATP final conc. 2 mM, 15 min preincubation, 30 min reaction at 22° C.
# T2 construct: purchased Carna Biosciences 02-145; host or cells: insect cells (baculovirus expression system)
# Protocol: MKNK1 Kinase High ATP Assay
# MKNK1-inhibitory activity at high ATP of compounds of the present invention after their preincubation with MKNK1 was quantified employing the TR-FRET-based MKNK1 high ATP assay as described in the following paragraphs.
# as §1, with “human full-length” for “human full-lengt”, “was used,” for “was used”, “e.g. from” for “e.g. form”
# as §2, with “3.3 mM=>final” for “16.7 μM=>final”, “2 mM)” for “10 μM)”, “30” for “45”, “0.003 μg/mL.” for “0.05 μg/ml.”
# The resulting mixture was incubated for 1 h at 22° C. to allow the formation of complex between the phosphorylated biotinylated peptide and the detection reagents. Subsequently the amount of phosphorylated substrate was evaluated by measurement of the resonance energy transfer from the Eu-chelate to the streptavidine-XL. Therefore, the fluorescence emissions at 620 nm and 665 nm after excitation at 350 nm were measured in a TR-FRET reader, e.g. a Rubystar (BMG Labtechnologies, Offenburg, Germany) or a Viewlux (Perkin-Elmer). The ratio of the emissions at 665 nm and at […] was taken as the measure for the amount of phosphorylated substrate. The data were normalised (enzyme reaction without inhibitor=0% inhibition, all other assay components but no enzyme=100% inhibition).
# T2 sequence (Q9BUB5 1-424 isoform Q9BUB5-2 T344D): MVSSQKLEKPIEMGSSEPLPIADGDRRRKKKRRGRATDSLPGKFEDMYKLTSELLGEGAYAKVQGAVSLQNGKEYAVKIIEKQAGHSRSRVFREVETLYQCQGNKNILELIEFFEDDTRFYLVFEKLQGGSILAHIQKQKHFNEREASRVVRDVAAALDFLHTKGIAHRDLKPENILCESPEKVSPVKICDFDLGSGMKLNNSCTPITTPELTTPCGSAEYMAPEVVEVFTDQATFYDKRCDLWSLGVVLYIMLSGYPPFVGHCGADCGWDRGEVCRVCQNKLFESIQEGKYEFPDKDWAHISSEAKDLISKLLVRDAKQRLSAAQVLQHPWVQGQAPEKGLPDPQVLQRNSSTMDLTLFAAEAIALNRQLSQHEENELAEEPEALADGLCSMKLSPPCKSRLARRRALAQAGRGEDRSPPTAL
# T1 sequence (Q9BUB5 1-424 isoform Q9BUB5-2 T344D): as above
Compound,IC50 (human full-lengt MKNK1),IC50 (human full-length MKNK1)
"CCN(C(=O)OC(C)(C)C)c1nccc2oc(-c3cnc4ccc(OC[C@H](C)N)nn34)cc12 [Example 39, tert-Butyl[2-(6-{[(2S)-2-aminopropyl]oxy}imidazo[1,2-b]pyridazin-3-yl)-furo[3,2-c]pyridin-4-yl]ethylcarbamate]",250 nM,593 nM
"COc1nccc2oc(-c3cnc4ccc(OC(CN)Cc5ccccc5)nn34)cc12 (stereo not drawn) [Example 33, 2-{[3-(4-Methoxyfuro[3,2-c]pyridin-2-yl)imidazo[1,2-b]pyridazin-6-yl]oxy}-3-phenylpropan-1-amine]",99 nM,117 nM
"CCOc1nccc2oc(-c3cnc4ccc(OC[C@H](C)N)nn34)cc12 [Example 32, (2S)-1-{[3-(4-Ethoxyfuro[3,2-c]pyridin-2-yl)imidazo[1,2-b]pyridazin-6-yl]oxy}-propan-2-amine]",14 nM,37 nM
"COc1nccc2oc(-c3cnc4ccc(OCC5(CN)COC5)nn34)cc12 [Example 27, 1-[3-({[3-(4-Methoxyfuro[3,2-c]pyridin-2-yl)imidazo[1,2-b]pyridazin-6-yl]-oxy}methyl)oxetan-3-yl]methanamine]",153 nM,259 nM
"COc1nccc2oc(-c3cnc4ccc(OCC(CN)c5ccccc5)nn34)cc12 (stereo not drawn) [Example 23, 3-{[3-(4-Methoxyfuro[3,2-c]pyridin-2-yl)imidazo[1,2-b]pyridazin-6-yl]oxy}-2-phenylpropan-1-amine]",32 nM,57 nM
"N[C@H](COc1ccc2ncc(-c3cc4cnccc4o3)n2n1)c1ccccc1 [Example 1, (1S)-2-{[3-(Furo[3,2-c]pyridin-2-yl)imidazo[1,2-b]pyridazin-6-yl]oxy}-1-phenylethanamine]",17 nM,53 nM
"COc1nccc2oc(-c3cnc4ccc(O[C@H](C)CN)nn34)cc12 [Example 6, (2R)-2-{[3-(4-Methoxyfuro[3,2-c]pyridin-2-yl)imidazo[1,2-b]pyridazin-6-yl]-oxy}propan-1-amine]",23 nM,37 nM
"C[C@@H](N)COc1ccc2ncc(-c3cc4ncccc4o3)n2n1 [Example 17, (2R)-{[3-(Furo[3,2-b]pyridin-2-yl)imidazo[1,2-b]pyridazin-6-yl]oxy}propan-2-amine]",67 nM,127 nM
"N[C@H]1C[C@H](Oc2ccc3ncc(-c4cc5ccncc5o4)n3n2)C1 [Example 13, trans-3-{[3-(Furo[2,3-c]pyridin-2-yl)imidazo[1,2-b]pyridazin-6-yl]oxy}-cyclobutanamine salt with formic acid]",5 nM,16 nM
"CC(C)Oc1nccc2oc(-c3cnc4ccc(O[C@H]5C[C@H](N)C5)nn34)cc12 [Example 37, trans-3-({3-[4-(Propan-2-yloxy)furo[3,2-c]pyridin-2-yl]imidazo[1,2-b]pyridazin-6-yl}oxy)cyclobutanamine]",7 nM,17 nM
"COc1nccc2oc(-c3cnc4ccc(OC[C@H](N)CO)nn34)cc12 [Example 15, (2R)-2-Amino-3-{[3-(4-methoxyfuro[3,2-c]pyridin-2-yl)imidazo[1,2-b]pyridazin-6-yl]oxy}propan-1-C1]",12 nM,31 nM
"COc1nccc2oc(-c3cnc4ccc(OC[C@H](N)COCc5ccccc5)nn34)cc12 [Example 11, (2R)-1-(Benzyloxy)-3-{[3-(4-methoxyfuro[3,2-c]pyridin-2-yl)imidazo[1,2-b]-pyridazin-6-yl]oxy}propan-2-amine]",17 nM,59 nM
"C[C@H](N)COc1ccc2ncc(-c3cc4c(OCC5CC5)nccc4o3)n2n1 [Example 25, (2S)-1-({3-[4-(Cyclopropylmethoxy)furo[3,2-c]pyridin-2-yl]imidazo[1,2-b]-pyridazin-6-yl}oxy)propan-2-amine]",16 nM,28 nM
"C[C@@H](N)COc1ccc2ncc(-c3cc4c(OC5CCC5)nccc4o3)n2n1 [Example 42, (2R)-1-({3-[4-(Cyclobutyloxy)furo[3,2-c]pyridin-2-yl]imidazo[1,2-b]pyridazin-6-yl}oxy)propan-2-amine]",,26 nM
"CC(C)(C)COc1nccc2oc(-c3cnc4ccc(O[C@H]5C[C@H](N)C5)nn34)cc12 [Example 24, trans-3-({3-[4-(2,2-Dimethylpropoxy)furo[3,2-c]pyridin-2-yl]imidazo[1,2-b]-pyridazin-6-yl}oxy)cyclobutanamine]",3 nM,4 nM
"CCNc1nccc2oc(-c3cnc4ccc(OC[C@H](C)N)nn34)cc12 [Example 40, 2-(6-{[(2S)-2-Aminopropyl]oxy}imidazo[1,2-b]pyridazin-3-yl)-N-ethylfuro[3,2-c]pyridin-4-amine]",5 nM,13 nM
"CCOc1nccc2oc(-c3cnc4ccc(O[C@H]5C[C@H](N)C5)nn34)cc12 [Example 36, trans-3-{[3-(4-Ethoxyfuro[3,2-c]pyridin-2-yl)imidazo[1,2-b]pyridazin-6-yl]oxy}-cyclobutanamine]",4 nM,4 nM
"CCOc1nccc2oc(-c3cnc4ccc(OC[C@@H](C)N)nn34)cc12 [Example 38, (2R)-1-{[3-(4-Ethoxyfuro[3,2-c]pyridin-2-yl)imidazo[1,2-b]pyridazin-6-yl]oxy}-propan-2-amine]",8 nM,23 nM
"C[C@H](N)COc1ccc2ncc(-c3cc4c(OC5CCC5)nccc4o3)n2n1 [Example 41, (2S)-1-({3-[4-(Cyclobutyloxy)furo[3,2-c]pyridin-2-yl]imidazo[1,2-b]pyridazin-6-yl}oxy)propan-2-amine]",,19 nM
